The results in this text go back to the OligoGym collection.

Where “and” joins values, the source holds several entries; their conditions need not be identical. Equal values may be shown once. After the bases stand the sugars from the 5' end (letter, count) and the backbone: PS all phosphorothioate, else s phosphorothioate and o phosphodiester by linkage. Methylation of C is not given here. e = 2'-O-(2-methoxyethyl) (MOE); d = 2'-deoxy (DNA)

The data set deals with DGAT2. As to conditions: ASO.

Turning to “CAGCAGGTTGTGTGTCTTCA (sugars e5 d10 e5, PS)”, the target mRNA inhibition runs as follows: (HepG2, 0.12 µM) 66% and 75%; (HepG2, 2.5 µM) 16% and 39%; (HepG2, 10 µM) 63% and 79%.
On to “TAGCTCATGGTGGCGGCATC (sugars e5 d10 e5, PS)”, for which the target mRNA inhibition (HepG2, 0.12 µM) amounted to 35%.
“TATTCATCTTTCCAGATCCG (sugars e5 d10 e5, PS)”: the target mRNA inhibition came out at 66% (HepG2, 2.5 µM) and 91% (HepG2, 10 µM).
The like results for “CTGTGAGGCCAAGGACAGAG (sugars e5 d10 e5, PS)” were, in that order, 50% and 81%.
The like results for “TGTCCTAGTGCCCCAGGGAG (sugars e5 d10 e5, PS)” were, in that order, 48% and 79%.
The like results for “CAGATCTTCATTACATGATT (sugars e5 d10 e5, PS)” were, in that order, 71% and 89%.
Take “CAATGGGAATGGTATCGCAC (sugars e5 d10 e5, PS)”: the target mRNA inhibition is 68% and 62% (HepG2, 2.5 µM); 93% and 85% (HepG2, 10 µM).
Sequence “AGGACAGGGCAGACACACCT (sugars e5 d10 e5, PS)” came in with a target mRNA inhibition (HepG2, 0.12 µM) of 44%.
Still for that read-out and setting: as for “GTCATCCAGTATAGCCTAAT (sugars e5 d10 e5, PS)”, the figure is 44%; as for “GAAGTCAGGCCAAGTGCCAA (sugars e5 d10 e5, PS)”, 26%.
As to “AAGGAGTTTGTGTTTCCCAT (sugars e5 d10 e5, PS)”, the target mRNA inhibition is, setting by setting: (HepG2, 2.5 µM) 71% and 65%; (HepG2, 10 µM) 91% and 85%.
Consider “CTTCTGGACCCATCGGCCCC (sugars e5 d10 e5, PS)”, for which the target mRNA inhibition (HepG2, 0.12 µM) worked out at 30%.
Take “CTGTGCTCTGTGGGCTCCTC (sugars e5 d10 e5, PS)”: the target mRNA inhibition by setting is: (HepG2, 2.5 µM) 57%; (HepG2, 10 µM) 89%.
The like results for “GCCAAGGACAGAGGTTCAAC (sugars e5 d10 e5, PS)” were, in that order, 61% and 90%.
The sequence “TTTCGGACCCACTGTGACCT (sugars e3 d14 e3, PS)” displayed a target mRNA inhibition (HepG2, 0.12 µM) of 61%.
In the case of “GTTGTGTGTCTTCACCAGCT (sugars e3 d14 e3, PS)”, the target mRNA inhibition (HepG2, 0.12 µM) was found to be 56%.
Consider “CATACTGGCATCTGGCAGGG (sugars e5 d10 e5, PS)”, for which the target mRNA inhibition by setting is: (HepG2, 2.5 µM) 65%; (HepG2, 10 µM) 83%.
Under “HepG2, 0.12 µM”, “TTCTGTGGCCTCTGTGCTGA (sugars e5 d10 e5, PS)” yielded a target mRNA inhibition of 25%.
On to “AGGCCAAGGACAGAGGTTCA (sugars e5 d10 e5, PS)”, for which the target mRNA inhibition runs as follows: (HepG2, 2.5 µM) 60% and 51%; (HepG2, 10 µM) 81% and 87%.
Turning to “TGGTGATGGGCTTGGAGTAG (sugars e5 d10 e5, PS)”, the target mRNA inhibition (HepG2, 0.12 µM) came to 28%.
On the same count and under the same terms, in the case of “GTTCCAGTCAAACACCAGCC (sugars e5 d10 e5, PS)” it was 31%; in that of “GATTTGTACTTGAATCCAGG (sugars e5 d10 e5, PS)”, 34%.
With “CCTCTGCTTCTTGGGCATCT (sugars e5 d10 e5, PS)”, the target mRNA inhibition is 92% and 91% (HepG2, 2.5 µM); 91% and 89% (HepG2, 10 µM).
Turning to “CCAGGGCCTCCATGTACATG (sugars e2 d13 e5, PS)”, under “HepG2, 0.12 µM”, the target mRNA inhibition was determined as 69%.
“GGGAAGGTAAACTGAGGCCA (sugars e5 d10 e5, PS)”: the target mRNA inhibition (HepG2, 0.12 µM) came to 32%.
Take “GCCTGGACAAGTCCTGCCCA (sugars e3 d14 e3, PS)”: the target mRNA inhibition was 84% (HepG2, 0.12 µM); 45% and 42% (HepG2, 2.5 µM); 89% (HepG2, 10 µM); 48% (HepG2, 20 µM).
In the case of “CCCAGTACTTTCTTCTCATG (sugars e5 d10 e5, PS)”, the target mRNA inhibition runs as follows: (HepG2, 2.5 µM) 72%; (HepG2, 10 µM) 96%.
The like results for “CACCATTTTCACAAGGAGAA (sugars e5 d10 e5, PS)” were, in that order, 86% and 82%.
The sequence “TTCTTTTAAATAACCCACAG (sugars e5 d10 e5, PS)” showed a target mRNA inhibition (HepG2, 0.12 µM) of 8%.
As to “AGCCAGGTAAGGCCGTATGC (sugars e2 d13 e5, PS)”, the target mRNA inhibition (HepG2, 0.12 µM) came to 67%.
Same read-out and setting: as for “GCAGGACCCCGGAGTAGGCG (sugars e3 d14 e3, PS)”, the figure is 70%.
Consider “AAATAACCCACAGACACCCA (sugars e5 d10 e5, PS)”, for which the target mRNA inhibition is 10% (HepG2, 0.12 µM); 52% and 50% and 46% (HepG2, 2.5 µM); 96% and 85% (HepG2, 10 µM); 97% (HepG2, 20 µM).
With “ATTGCCACTCCCATTCTTTG (sugars e2 d13 e5, PS)”, for the setting “HepG2, 0.12 µM”, the target mRNA inhibition was 53%.
For the sequence “AGGGAGGCCTTGCACTTACC (sugars e5 d10 e5, PS)”, under “HepG2, 0.12 µM”, the target mRNA inhibition was 13%.
Same read-out and setting: in the case of “CCCACTGGAGCACTGAGATG (sugars e3 d14 e3, PS)” it was 75%.
The same measure, in the same setting: in the case of “TGGCTGGGAGGAGTCCAGCA (sugars e5 d10 e5, PS)” it was 10%; in that of “ATGTATTTCTGGAACTTCTT (sugars e5 d10 e5, PS)”, 45%.
Take “GCCAGGTAAGGCCGTATGCC (sugars e5 d10 e5, PS)”: the target mRNA inhibition (HepG2, 0.12 µM) was 68%.
